Reference: patent publication US8575376B2, “Steroide anionic compounds, method of their production, usage and pharmaceutical preparation involving them” (Ustav Organicke Chemie A Biochemie Akademie Ved Ceske …, priority 2009, dated 2013)

Legend:
rats [1] = assay: Active allothetic place avoidance (AAPA) task, compound applied alone; type: in vivo, rat
Description: The effect of compound from Example 9 on cognitive behaviors and locomotion was assessed using active allothetic place avoidance (AAPA) task, which requires intact hippocampi and ability of animals to navigate in space using distinct reference frames (spatial navigation and “cognitive coordination”) (Wesierska et al., 2005) and it also allows measuring changes in the accompanying locomotor activity. AAPA task training involves animals trained to move over a slowly rotating uniform circular arena, on which a prohibited sector is defined, entering which is punished by a mild footshock. A shock sector and its position can be determined solely by its relationship to distal orienting cues in the room (Stuchlik et al., 2008).
This task is highly dependent upon hippocampal formation, with unilateral reversible ablation of this structure with TTX leading to avoidance deficit (Cimadevilla et al., 2001). Animals solving this task should walk in a direction opposite to arena rotation; otherwise it would be repeatedly brought to a fixed sector by arena rotation. We conducted 4 acquisition session of AAPA task, during which the sector location was always reinforced and remained stable throughout the training. Each session lasted 20 min.
Control animals obtained saline intraperitoneally (i.p.) whilst experimental groups received subcutaneous (s.c.) injections of the compound from Example 9 at doses 1 mg/kg and 10 mg/kg (dissolved in cyclodextrin). Solution of compound from Example 9 (1 mg/2 ml or 10 mg/2 ml in cyclodextrin) was applied s.c. at a volume 2 ml/kg of body weight (b.w.). Intraperitonal application of dizocilpine (a non-competitive NMDA receptor antagonist; showing significant neuroprotective activity but exerting cognition-disturbing and psychotomimetic effects) was used as a positive control. Dizocilpine was applied at doses 0.1 mg/kg, 0.2 mg/kg and 0.3 mg/kg. It is worth noting that dizocilpine (albeit its experimental neuroprotective activity) is often used to model schizophrenia-like behaviors in […] and it has been repeatedly shown to exert a dose-dependent learning deficit and hyperlocomotion.

rats [2] = assay: Open-field locomotion in MK-801 animal model of schizophrenia; type: in vivo, rat; details: substance alone; Example 9 0.1 and 1 mg/kg, MK-801 0.1 mg/kg
Description: The effect of the compound from example 9 in doses of 0.1 mg/kg and 1 mg/kg on locomotor activity in open field test was evaluated. Locomotor activity expressed as a total distance travelled during 30 min exploration of a box (68×68×30 cm) located in a sound proof room was measured using a video tracking system for automation of the behavioural experiments (Noldus, EthoVision, Version 2.1.).

[3] = biological target: T1, recombinant NR1/NR2B receptors (Rattus norvegicus, UniProt P35439+Q00960); assay: Patch-clamp, inhibition of glutamate responses of recombinant NMDA receptors in transfected HEK293 cells; type: cell-based; details: for IC50: calculated from relative inhibition with Hill's coefficient 1.2; for Relative inhibition effect (%): responses to 1 mM glutamate, -60 mV, HEK293 NR1-1a/NR2B, steroid 50, 100 or 200 μM
T1 construct: expressed in transfected cells; host or cells: HEK293 cells (ATCC CRL1573)
T1 sequence (Q00960 27-1482, other chains not shown): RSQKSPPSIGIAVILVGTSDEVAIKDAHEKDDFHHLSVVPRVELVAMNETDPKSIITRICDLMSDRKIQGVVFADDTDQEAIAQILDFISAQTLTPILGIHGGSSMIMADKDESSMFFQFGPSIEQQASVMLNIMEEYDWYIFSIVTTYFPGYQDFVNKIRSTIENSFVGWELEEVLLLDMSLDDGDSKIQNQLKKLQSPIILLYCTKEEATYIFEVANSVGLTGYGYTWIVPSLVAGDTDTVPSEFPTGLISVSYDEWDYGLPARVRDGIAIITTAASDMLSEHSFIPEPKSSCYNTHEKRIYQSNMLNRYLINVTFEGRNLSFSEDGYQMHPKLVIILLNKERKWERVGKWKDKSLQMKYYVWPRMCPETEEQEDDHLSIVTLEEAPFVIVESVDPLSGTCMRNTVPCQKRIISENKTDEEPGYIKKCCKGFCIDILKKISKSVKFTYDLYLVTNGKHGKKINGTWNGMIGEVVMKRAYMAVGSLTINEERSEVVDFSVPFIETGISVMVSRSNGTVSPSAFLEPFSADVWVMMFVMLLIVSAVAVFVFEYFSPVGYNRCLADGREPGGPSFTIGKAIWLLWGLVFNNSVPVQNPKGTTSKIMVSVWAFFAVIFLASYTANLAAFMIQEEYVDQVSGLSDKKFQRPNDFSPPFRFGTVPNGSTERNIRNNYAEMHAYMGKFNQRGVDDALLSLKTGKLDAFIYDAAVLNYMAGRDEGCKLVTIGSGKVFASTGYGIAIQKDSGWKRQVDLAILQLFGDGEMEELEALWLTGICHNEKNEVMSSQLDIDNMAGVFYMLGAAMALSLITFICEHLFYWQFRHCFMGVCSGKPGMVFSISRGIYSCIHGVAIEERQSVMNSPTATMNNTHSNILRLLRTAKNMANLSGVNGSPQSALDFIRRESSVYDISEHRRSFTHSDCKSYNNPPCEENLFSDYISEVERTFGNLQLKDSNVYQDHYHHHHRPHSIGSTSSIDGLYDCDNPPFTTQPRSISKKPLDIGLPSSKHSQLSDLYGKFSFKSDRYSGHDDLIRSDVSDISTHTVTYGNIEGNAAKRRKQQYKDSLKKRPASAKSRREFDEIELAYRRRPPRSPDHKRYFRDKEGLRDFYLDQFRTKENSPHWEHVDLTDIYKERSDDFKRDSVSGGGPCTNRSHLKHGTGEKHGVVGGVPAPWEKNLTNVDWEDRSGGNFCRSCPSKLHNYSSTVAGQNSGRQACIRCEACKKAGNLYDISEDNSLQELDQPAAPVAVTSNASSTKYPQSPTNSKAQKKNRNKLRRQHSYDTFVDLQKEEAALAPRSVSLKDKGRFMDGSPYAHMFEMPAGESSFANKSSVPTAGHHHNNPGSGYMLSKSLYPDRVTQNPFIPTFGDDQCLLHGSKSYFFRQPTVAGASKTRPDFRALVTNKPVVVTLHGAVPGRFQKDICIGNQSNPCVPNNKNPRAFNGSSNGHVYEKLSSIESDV

[4] = biological target: T1, recombinant NR1/NR2B receptors; details: 100 μM pregnanolone sulphate, recombinant NR1/NR2B receptors (Petrovic et al., 2005); listed as preganolone sulphate; cited from earlier work
[5] = tested on: NMDA receptor on hippocampal neurons; details: 100 μM pregnanolone sulphate, responses to 100 μM NMDA, hippocampal neurons (Petrovic et al., 2005); cited from earlier work
C6 glioma cell line = assay: Growth of glioma cells in culture; type: cell-based; details: 0.1 and 1 μg in 50 ml β-cyclodextrine solution, 3 div + 6 days
Description: The effect of compound from the example 9 (the model molecule) on growth of glioma cells was studied on C6 glioma cell line (ATTC, Rockville). The model molecule was tested at doses of 0.1 and 1 μg dissolved in 50 ml of β-cyclodextrine solution. Parallel control groups were administered by cholesterol at doses of 0.1 and 1 μg dissolved in 50 ml of β-cyclodextrine solution. The last group included in the experiment was left intact without any application.
The cells were cultivated in vitro for 3 days (div). Afterwards tested molecule was applied and the cell culture was studied for additional 6 days. Olympus microscope with phase contrast and 200× magnification was used for the cell monitoring.

[6] = Example 9 1 and 10 mg/kg s.c., dizocilpine 0.1-0.3 mg/kg i.p.

Compound	IC50 [3] [µM]	Relative inhibition effect (%) [3] [%]	also measured
C[C@]12N[C@H](Cc3ccccc31)c1ccccc12 [dizocilpine]	–	–	maximum time avoided in AAPA (rats [1]; [6]): significantly decreased rats' performance; number of entrances into shock sector in AAPA (rats [1]; [6]): dose-dependently disrupted this parameter; total distance traveled in AAPA (locomotor activity) (rats [1]; Example 9 1 and 10 mg/kg s.c., dizocilpine 0.1-0.3 mg/kg i.p., 20-min sessions): dose-dependently and consistently stimulated the locomotor activity; locomotor activity in AAPA (rats [1]; dizocilpine 0.1 mg/kg i.p.): hyperlocomotion was not observed; locomotor activity in AAPA (rats [1]; dizocilpine 0.2 mg/kg i.p.): marked locomotor hyperactivity; locomotor activity in AAPA (rats [1]; dizocilpine 0.3 mg/kg i.p.): even more dramatic hyperlocomotion; locomotion in open field (total distance, 30 min) (rats [2]): hyperlocomotion state induced by MK-801
CC(=O)[C@H]1CC[C@H]2[C@@H]3CC[C@@H]4C[C@H](OC(=O)C(C)CC(=O)O)CC[C@]4(C)[C@H]3CC[C@]12C (stereo partly drawn) [Example 19, 20-Oxo-5β-pregnan-3α-yl 3-carboxy-ξ-methyl-propanoate]	30	80.9 ± 3.6	–
20-oxo-5beta-pregnan-3alpha-yl sulfate [Pregnanolone sulphate]	55	–	mean inhibition effect [4]: 67.2±8.2%; mean inhibition effect [5]: 71.3±5.0%
CC(=O)[C@H]1CC[C@H]2[C@@H]3CC[C@@H]4C[C@H](OC(=O)[C@@H](N)CC(=O)O)CC[C@]4(C)[C@H]3CC[C@]12C [Example 3, 20-Oxo-5β-pregnan-3α-yl L-aspartyl 1-ester]	51	83.6 ± 2.7	–
CC(=O)[C@H]1CC[C@H]2[C@@H]3CC[C@@H]4C[C@H](OC(=O)CCCCCCC(=O)O)CC[C@]4(C)[C@H]3CC[C@]12C [Example 15, 20-Oxo-5β-pregnan-3α-yl 7-carboxyheptanoate]	175	54.0 ± 10.8	–
CC(=O)[C@H]1CC[C@H]2[C@@H]3CC[C@@H]4C[C@H](OC(=O)/C=C\C(=O)O)CC[C@]4(C)[C@H]3CC[C@]12C [Example 17, 20-Oxo-5β-pregnan-3α-yl (Z)-3-carboxyprop-2-enoate]	14	81.6 ± 2.7	–
CC(C)CCC[C@@H](C)[C@H]1CC[C@H]2[C@@H]3CC=C4C[C@@H](O)CC[C@]4(C)[C@H]3CC[C@]12C [cholesterol, reference compound]	–	–	effect on growth of glioma cells (C6 glioma cell line): slightly apparent
COC(=O)CN[C@@H]1CC[C@@]2(C)[C@H](CC[C@@H]3[C@@H]2CC[C@]2(C)[C@@H](C(C)=O)CC[C@@H]32)C1.Cl [Example 26, N-(20-Oxo-5β-pregnan-3α-yl) glycine methylester hydrochloride]	250	43.4 ± 3.4	–
CC(=O)[C@H]1CC[C@H]2[C@@H]3CC[C@@H]4C[C@H](OC(=O)CCCCCC(=O)O)CC[C@]4(C)[C@H]3CC[C@]12C [Example 14, 20-Oxo-5β-pregnan-3α-yl 6-carboxyhexanoate]	135	61.5 ± 10.6	–
CC(=O)[C@H]1CC[C@H]2[C@@H]3CC[C@@H]4C[C@H](OC(=O)CCCCC(=O)O)CC[C@]4(C)[C@H]3CC[C@]12C [Example 13, 20-Oxo-5β-pregnan-3α-yl-adipyl 1-ester]	40	87.3 ± 8.9	–
